PMC9804781, “Identification of a Novel Pseudo‐Natural Product Type IV IDO1 Inhibitor Chemotype” (Angewandte Chemie (International Ed. in English), 2022)

Columns and labels:
IDO1 = IDO1 (Homo sapiens, UniProt P14902); assay: In-Cell CETSA for IDO1 in SKOV-3 cells; assay type: cell-based; parameters: endogenous in cells; host or cells: SKOV-3 (IFN-γ induced); settings: 15 min
Procedure: SKOV-3 cells (1.25 x 10^6 cells/flask) were seeded in two T75 tissue culture flasks and incubated for 24 h prior to addition of 17.6 ng/mL IFN-γ and 10 µM succinylacetone (SA, heme synthesis inhibitor). After 24 h, cells were treated with the compound (C) or DMSO (V, vehicle) for 15 min at 37°C. Cells were detached with trypsin/EDTA and washed thrice in cold PBS after resuspension in cold PBS. C- and V-treated samples were distributed equally into ten tubes each and subjected to heating at different temperatures in the MasterCycler EpGradient S (Eppendorf SE, DE). Afterwards, NP-40 alternative was added to a final concentration of 0.4% (v/v) and cells were lysed by five consecutive freeze/thaw cycles. Soluble fractions were separated from denatured proteins by centrifugation at 100,000 x g and 4°C for 20 min. Supernatants were transferred to new tubes and subjected to immunoblot analysis.

[1] = system: L-Trp uptake in BxPC-3 cells; assay: Trp uptake assay in BxPC-3 cells (HPLC-MS/MS); assay type: cell-based; settings: BxPC-3 starved for L-Trp 72 h, ±IFN-γ; 5 mM L-Leu, 1 mM 1-MT, 5 µM compound
Procedure: GraphPad Prism 9.0 (GraphPad Software, Inc, US) to generate dose-response curves and obtain […]
IDO1 promoter reporter gene assay
HEK293T cells (25,000 cells/well) were reverse-transfected with pXPG-IDO1[16] (4 µg/96-well plate, kindly provided by Gina M. Doody, Leeds, UK) and pRL-TK (300 ng/96-well plate, Promega, US) using Lipofectamine™ 2000 (Invitrogen, USA) pri or to incubation for 24 h. Afterwards, cells were treated with 50 ng/mL IFN-γ and the compounds for 48 h. Luminescence generated by the Fluc reporter and the control reporter Rluc was measured using the Dual-Glo ® Luciferase Assay System (Promega, US) on the Spark® Multimode Microplate Reader (Tecan, AT). To determine the IDO1 promoter activity, Fluc signals were divided by Rluc signals and normalized to the values of the DMSO control. Data analysis was performed using a non-linear regression curve fit and […]
BxPC-3 cells (30,000 cells/well) were seeded in 96-well plates in Trp-free RPMI 1640 medium and incubated for 48 h prior addition of 50 ng/mL IFN-γ. Trp starvation was continued for another 24 h. Afterwards, medium was exchanged for Trp-free medium containing the control inhibitors 5 mM L-Leu (inhibitor of system-L amino acid transporters (LAT)), 1 mM 1-methyl-L-tryptophan (inhibitor of tryptophanyl-tRNA synthetase (TrpRS)) and compounds and cells were incubated for 30 min. Subsequently, 50 µM L-Trp was added and samples were incubated for another 30 min.
The supernatant was transferred to a new plate, trichloroacetic acid was added to a final concentration of 7% (v/v) and plates were incubated for 15 min at room temperature. Samples were centrifuged for 10 min at 1800 x g and L-Trp was quantified by HPLC-MS/MS using the LTQ Velos Pro and Dionex HPLC (Thermo Fisher Scientific, US). Data analysis was performed with Xcalibur™ (Thermo Fisher Scientific, US) and repres ented using GraphPad Prism 9.0 (GraphPad […]
RNA purification and RT-qPCR
HeLa cells (250,000 cells/well) were seeded in 6-well plates and incubated for 24 h prior addition of 50 ng/mL IFN-γ and compounds. […]

Chain of IDO1 (P14902 whole entry): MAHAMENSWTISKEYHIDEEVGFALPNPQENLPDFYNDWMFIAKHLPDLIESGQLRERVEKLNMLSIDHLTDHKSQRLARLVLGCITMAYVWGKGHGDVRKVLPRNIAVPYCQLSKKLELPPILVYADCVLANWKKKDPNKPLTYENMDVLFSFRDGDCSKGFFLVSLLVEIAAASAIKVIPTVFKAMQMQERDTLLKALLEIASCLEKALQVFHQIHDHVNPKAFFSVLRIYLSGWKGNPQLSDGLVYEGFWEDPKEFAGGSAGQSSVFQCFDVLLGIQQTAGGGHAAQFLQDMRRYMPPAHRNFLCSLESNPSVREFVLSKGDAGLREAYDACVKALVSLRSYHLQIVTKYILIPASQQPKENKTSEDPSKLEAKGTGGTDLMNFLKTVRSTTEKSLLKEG

`CCOC(=O)C1=CC[C@](C(=O)OC)(c2cc3ccccc3n2C)N(S(=O)(=O)c2ccc(C)cc2)[C@@H]1C(=O)OC(C)(C)C` [Compound 3d] was tested, and the “CETSA shift in Tm of IDO1 (result in words)” value (IDO1; IFN-γ 24 h, 50 μM, no succinylacetone) was “did not lead to a shift”, the ΔTm at 30 µM (IDO1; SK-OV-3, IFN-γ and 10 μM succinylacetone 24 h, 30 μM, read-out: CETSA ΔTm of apo-IDO1) was 7.9 ± 0.6 °C and the “uptake (import) of L-Trp” value [1] was “does not interfere”.
